Data on nine compounds can be found in patent publication US8728516B2, “Stabilized lipid formulation of apoptosis promoter” (AbbVie Inc., priority 2009, dated 2014).

Data set [1] in a line: Sulfoxide formation, free base vs bis-HCl salt in lipid solution (Example 3). To be noted: lipid solutions (PE-91, LOT-343) aged at 40°C for up to 3 weeks. The class given is physicochemical. The procedure: The solvent system in solution A is Phosal 53 MCT™/ethanol, 9:1 v/v; and in solution B is Labrafil M 1944 CS™/oleic acid/polysorbate 80, 30%/40%/30% by weight. (Labrafil M 1944 CS™ of Gattefossé contains polyoxyethylene glyceryl monooleate.) The three-week study was conducted at 40° C. without nitrogen purging of headspace. […] No antioxidant was included, nor was headspace nitrogen purging performed.

Data set [2] is described as follows: Drug solubility in ternary excipient systems (Example 2). The format is physicochemical. To be noted: 10% salt, 20% free base by weight. The text has this:
Solvents evaluated included Labrafil M 1944 CS™, Imwitor 742™ oleic acid, Capmul PG-8™, Capmul PG-12™, Lauroglycol 90™ (propylene glycol monolaurate, available from Gattefosse) and Phosal 53 MCT™. Surfactants evaluated included Tween 80™, Cremophor RH40™, Gelucire 44/14™ (polyoxyethylene glyceryl laurate, available from Gattefosse) and Labrasol™.

The nature of data set [3]: Sulfoxide formation in various lipid solutions, two-week stress test (Example 4). The class given is physicochemical. Particulars: in Labrafil M 1944 CS and Plurol Oleique CC497; two-week stress test 40°C.
Data set [4] in a line: BHA as antioxidant in ternary lipid systems (Example 7). The format is physicochemical. On the procedure:
A full report of this study is found in Example 7 herein.
Testing was done in stress conditions at 40° C. without nitrogen purging.

The nature of data set [5]: Antioxidant testing, two-week stress test (Example 6). The format is physicochemical. Particulars: for inhibition of oxidative degradation: ABT-263 free base 100 mg/g in LIT-433 vehicle system, at the concentrations tested.
Data set [6] can be described thus: Storage stability of prototype capsules with and without NaMTBS (Example 12). The class given is physicochemical. Particulars: prototype ABT-263 capsules, especially at 40° C. and 75% RH. The text has this: The only difference between the two batches is presence or absence of antioxidant (sodium metabisulfite). The liquids having the composition shown in Table 16 were encapsulated in size 0 hard gelatin capsules and the capsules placed in blister packaging for a chemical stability study. Water content shown in Table 17 is as determined by analysis, and is not directly related to amount of water added with NaMTBS and edetate calcium disodium as in Table 16.

Data set [7] is classed as physicochemical. An excerpt:
Due to poor lipid solubility of NaMTBS, an alternative way of introducing it to the lipid solution is by adding a concentrated aqueous stock solution of NaMTBS to the lipid solution.

The mark [8] stands for this setting: C8LL (Capmul PG-8/Labrafil M 1944 CS/Labrasol) 40:40:20.
[9] abbreviates: C12LT (Capmul PG-12/Labrafil M 1944 CS/Tween 80) 30:40:30.
Where [10] appears, read: C12LT (Capmul PG-12/Labrafil M 1944 CS/Tween 80) 35:40:25.
Setting [11] is: C12LT (Capmul PG-12/Labrafil M 1944 CS/Tween 80) 40:30:30.
Where [12] appears, read: C12LT (Capmul PG-12/Labrafil M 1944 CS/Tween 80) 45:30:25.
The mark [13] stands for this setting: LLC (Lauroglycol 90/Labrafil M 1944 CS/Cremophor RH40) 45:30:25.
The mark [14] stands for this setting: LLL (Lauroglycol 90/Labrafil M 1944 CS/Labrasol) 40:40:20.
Setting [15] is: LLL (Lauroglycol 90/Labrafil M 1944 CS/Labrasol) 50:30:20.
Where [16] appears, read: LOC (Labrafil M 1944 CS/oleic acid/Cremophor RH40) 30:60:10.
Where [17] appears, read: LOC (Labrafil M 1944 CS/oleic acid/Cremophor RH40) 40:50:10.
Where [18] appears, read: LOT (Labrafil M 1944 CS/oleic acid/Tween 80) 30:40:30.
The mark [19] stands for this setting: LOT (Labrafil M 1944 CS/oleic acid/Tween 80) 30:45:25.
Where [20] appears, read: LOT (Labrafil M 1944 CS/oleic acid/Tween 80) 40:30:30.
[21] abbreviates: LOT (Labrafil M 1944 CS/oleic acid/Tween 80) 40:35:25.
Where [22] appears, read: OLL (oleic acid/Labrafil M 1944 CS/Labrasol) 40:40:20.
Where [23] appears, read: OLL (oleic acid/Labrafil M 1944 CS/Labrasol) 50:30:20.
Where [24] appears, read: OLL (oleic acid/Labrafil M 1944 CS/Labrasol) 50:40:10.
Setting [25] is: OLL (oleic acid/Labrafil M 1944 CS/Labrasol) 60:30:10.

Some results are limits rather than exact numbers.

For `CC1(C)CCC(c2ccc(Cl)cc2)=C(CN2CCN(c3ccc(C(=O)NS(=O)(=O)c4ccc(N[C@H](CCN5CCOCC5)CSc5ccccc5)c(S(=O)(=O)C(F)(F)F)c4)cc3)CC2)C1.Cl.Cl` [ABT-263 bis-HCl salt], the “color change upon aging” value in data set [1] is recorded as “pronounced color darkening”. Moreover, the ABT-263 solubility entry in data set [2] (setting [8]), in data set [2] (setting [9]), in data set [2] (setting [10]), in data set [2] (setting [11]), in data set [2] (setting [12]) and in data set [2] (ILC (Imwitor 742/Labrafil M 1944 CS/Cremophor RH40) 40:40:20) was “✓” in each case. Further, the ABT-263 solubility entry in data set [2] (ILC (Imwitor 742/Labrafil M 1944 CS/Cremophor RH40) 50:30:20), in data set [2] (ILC (Imwitor 742/Labrafil M 1944 CS/Cremophor RH40) 50:40:10), in data set [2] (ILC (Imwitor 742/Labrafil M 1944 CS/Cremophor RH40) 60:30:10), in data set [2] (ILL (Imwitor 742/Labrafil M 1944 CS/Labrasol) 40:40:20), in data set [2] (ILL (Imwitor 742/Labrafil M 1944 CS/Labrasol) 50:30:20) and in data set [2] (ILL (Imwitor 742/Labrafil M 1944 CS/Labrasol) 50:40:10) was “✓” throughout. Moreover, the ABT-263 solubility entry in data set [2] (ILL (Imwitor 742/Labrafil M 1944 CS/Labrasol) 60:30:10), in data set [2] (LIT (Labrafil M 1944 CS/Imwitor 742/Tween 80) 30:40:30), in data set [2] (LIT (Labrafil M 1944 CS/Imwitor 742/Tween 80) 30:45:25), in data set [2] (LIT (Labrafil M 1944 CS/Imwitor 742/Tween 80) 40:30:30), in data set [2] (LIT (Labrafil M 1944 CS/Imwitor 742/Tween 80) 40:35:25) and in data set [2] (setting [13]) was “✓” in each case. Further, the ABT-263 solubility entry in data set [2] (setting [14]), in data set [2] (setting [15]), in data set [2] (LLL (Lauroglycol 90/Labrafil M 1944 CS/Labrasol) 50:40:10), in data set [2] (LLL (Lauroglycol 90/Labrafil M 1944 CS/Labrasol) 60:30:10), in data set [2] (setting [16]) and in data set [2] (setting [17]) was “✓” each time. For the same compound, the ABT-263 solubility result in data set [2] (setting [18]), in data set [2] (setting [19]), in data set [2] (setting [20]), in data set [2] (setting [21]), in data set [2] (setting [22]) and in data set [2] (setting [23]) was “✓” in each case. The ABT-263 solubility result in data set [2] (setting [24]) and in data set [2] (setting [25]) was “✓” in each case.
For `CC1(C)CCC(c2ccc(Cl)cc2)=C(CN2CCN(c3ccc(C(=O)NS(=O)(=O)c4ccc(N[C@H](CCN5CCOCC5)CSc5ccccc5)c(S(=O)(=O)C(F)(F)F)c4)cc3)CC2)C1` [ABT-263], in data set [3], the degradation entry is on record as “significant degradation”. Moreover, the ABT-263 solubility entry in data set [2] (setting [8]), in data set [2] (setting [9]), in data set [2] (setting [10]), in data set [2] (setting [11]), in data set [2] (setting [12]) and in data set [2] (setting [13]) was “✓” throughout. Also, the ABT-263 solubility result in data set [2] (setting [14]), in data set [2] (setting [15]), in data set [2] (setting [16]), in data set [2] (setting [17]), in data set [2] (setting [18]) and in data set [2] (setting [19]) was “✓” each time. Also, the ABT-263 solubility entry in data set [2] (setting [20]), in data set [2] (setting [21]), in data set [2] (setting [22]), in data set [2] (setting [23]), in data set [2] (setting [24]) and in data set [2] (setting [25]) was “✓” each time.
In the case of `COc1ccc(O)c(C(C)(C)C)c1` [BHA, butylated hydroxyanisole], the “effect on sulfoxide formation” value in data set [4] (0.2% by weight BHA in 15% by weight ABT-263 free base in IPT-253, 4-week study at 40°C without nitrogen purging) is recorded as “no effect”. Besides, the “inhibition of sulfoxide formation” value in data set [4] (0.2% w/w BHA, ABT-263 150 mg/g in IPT-253 and LIT-433, 40°C without nitrogen purging) is on record as “did not provide any inhibition”. For the same compound, the “inhibition of oxidative degradation” value in data set [5] was “inhibited oxidative degradation to some extent”.
Consider `Cc1cc(C(C)(C)C)c(O)c(C(C)(C)C)c1` [BHT, butylated hydroxytoluene], for which the “inhibition of oxidative degradation” value in data set [5] was “inhibited oxidative degradation to some extent”.
With `OCC(O)CS` (centres unmarked) [Thioglycerol, thioglycerol], the “inhibition of drug oxidation” value in data set [5] (ABT-263 free base 100 mg/g, both vehicle systems (Lipoid S75 MCT, LIT-433)) is “effective inhibition”.
With `CCCCCCCCCCCCCCCC(=O)OC[C@H](O)[C@H]1OC(=O)C(O)=C1O` [ascorbyl palmitate], the “inhibition of oxidative degradation” value in data set [5] is listed as “inhibited oxidative degradation to some extent”.
Regarding `O=S([O-])S(=O)(=O)[O-].[Na+].[Na+]` [sodium metabisulfite], the “inhibition of formation of total sulfoxides” value in data set [6] was “significantly inhibited”. The “inhibition of oxidative degradation” value in data set [5] is “inhibited oxidative degradation to some extent”. Further, the “final NaMTBS concentration giving a clear solution” value in data set [7] was ≤ 9.67 mg/mL. In data set [7] (50 mg/ml free base solution in Phosal 53 MCT/ethanol 9:1 v/v, 15% w/v stock solution), the “final NaMTBS concentration at which the lipid solution turned turbid” value was ≥ 150 % relative molar concentration. In addition, in data set [7] (5 days), the “solubility of neat NaMTBS (solids remained)” value was < 0.05 % w/w.
Consider `O=S([O-])([O-])=S.[Na+].[Na+]` [sodium thiosulfate], for which, in data set [5], the “inhibition of oxidative degradation” value is on record as “inhibited oxidative degradation to some extent”.
Same read-out and setting: the entry for α-tocopherols is “ineffective”.
